# Test results reported in US20230106592A1, “METHOD FOR TREATING CANCER USING A COMBINATION OF DNA DAMAGING AGENTS AND ATR INHIBITORS” (Vertex Pharmaceuticals Incorporated, priority 2015, published 2023).
# “Also recorded” adds a separate entry of the source.
# Assays:
# PSN1 cancer cells = experiment: In vitro dose schedule with gemcitabine, MTS cell viability, Bliss synergy analysis; format: cell-based, human
# Procedure: Cell viability was measured by MTS assay at 96 hours and the data subjected to a statistical Bliss analysis using MacSynergy II software to quantitate synergy as a log volume.
# Cell viability was measured by MTS assay (96 hours) and the data subjected to a statistical Bliss analysis. Compound A-2 synergized with gemcitabine when administered at the start of gemcitabine treatment. […] The strong schedule dependence is attributed to an accumulation of cells in S phase, and concomitant increase in ATR activity (measured by P-Chk1) that occurs in response to gemcitabine treatment alone.
# [1] = tested on: PSN1 human pancreatic cancer xenografts; experiment: PSN1 xenograft, dose schedule in combination with gemcitabine; format: in vivo, Nude mice
# [2] = tested on: OD26749 primary human non-small cell lung cancer xenografts; experiment: Primary NSCLC xenograft, dose schedule in combination with cisplatin; format: in vivo, SCID mice
# Text: This contrasts with the effects of either agent given alone, where neither Compound A-2the nor cisplatin had any meaningful impact on tumor growth (≤10% tumor growth inhibition).
# [3] = Phase I trial, monotherapy: adverse events and DLTs; format: in vivo, human; conditions: for Drug-related G3-4 AEs / Dose-limiting toxicities (DLT): Part A; for Dose-limiting toxicities (DLT): once weekly IV monotherapy 60 to 480 mg/m^2
# Text: Pts with advanced solid tumors enrolled in 2 sequential parts.
# Eleven of the subjects were given a once weekly dosage of Compound A-2 as a monotherapy. Six of the subjects were given a twice weekly dosage of Compound A-2 as a monotherapy. […] DLTs were defined according to the National Cancer Institute (NCI) CTCAE (Version 4).
# In part A, single pt cohorts received a compound of Formula A-2 once weekly in 21-day cycles with 3+3 dose escalation cohorts being implemented if grade 2 drug-related adverse events (AEs) occurred. […] If a DLT was reported, the cohort was expanded to include 3 additional pts with subsequent dose escalation being permitted if no further DLTs occurred. Paired pre- and post-treatment biopsies from selected pts in part B were assessed for pCHK1 levels by immunohistochemistry. Models based on preclinical and clinical data were used to simulate hematologic toxicities and pCHK1 inhibition for pts treated with a compound of Formula A-2 and CP.
# advanced solid tumors = experiment: Phase I trial, combination with gemcitabine: response and PFS; format: in vivo, human
# Procedure: Fifty (50) pts (28 males and 22 females) of median age, 62 yrs (range 28-79 yrs), with Eastern Cooperative Oncology Group (ECOG) performance status 0/1:15/35 were treated. Primary tumors included non-small cell lung (NSCLC; n=6), pancreatic (n=2), breast (n=4), colorectal (n=15), head and neck (n=1), and other/missing (n=22).
# [4] = Compound A-2 10 mg/kg twice weekly, 14 hours after cisplatin 3 mg/kg weekly
# [5] = monotherapy 60 mg/m^2 Once Weekly (n = 1)
# [6] = monotherapy 120 mg/m^2 Once Weekly (n = 2)
# [7] = monotherapy 240 mg/m^2 Once Weekly (n = 1)
# [8] = monotherapy 240 mg/m^2 Twice Weekly (n = 6)
# [9] = monotherapy 480 mg/m^2 Once Weekly (n = 7)
smiles,measurement,setting,value
CNCc1ccc(-c2cc(-c3nc(-c4ccc(S(=O)(=O)C(C)C)cc4)cnc3N)on2)cc1 [Compound A-2],Synergy with gemcitabine (Bliss analysis of cell viability),"PSN1 cancer cells; Compound A-2 2 hour exposure at the start of 24 hour gemcitabine treatment, MTS at 96 hours",synergized
same,Synergy with gemcitabine (Bliss analysis of cell viability),PSN1 cancer cells; Compound A-2 administered 24 hours after starting gemcitabine treatment,maximal
same,Synergy with gemcitabine (Bliss analysis of cell viability),PSN1 cancer cells; Compound A-2 administered 48 hours or later after gemcitabine treatment was started,No synergy
same,Efficacy (tumor volume),"[1]; Compound A-2 20 mg/kg every 6 days, dosed 12 to 24 hours after gemcitabine 15 mg/kg every 3 days",most effective
same,Benefit over gemcitabine treatment,"[1]; Compound A-2 dosed before gemcitabine, or 48 hours after gemcitabine",limited benefit
same,Efficacy (tumor volume),[1]; Compound A-2 dosed within 12 hours or beyond 24 hours of gemcitabine administration,reduced efficacy
same,Body weight loss,[1]; addition of Compound A-2 to gemcitabine compared with gemcitabine only,did not lead to increased body weight loss
same,Efficacy (tumor volume),[2]; Compound A-2 10 mg/kg twice weekly dosed 14 hours after cisplatin 3 mg/kg weekly,most effective
same,Growth delay,[2]; [4],substantial growth delay
same,Tumor regression,[2]; [4],43%
same,Body weight loss at nadir,[2]; combination of Compound A-2 and cisplatin,< 2%
same,Drug-related G3-4 AEs,[3]; monotherapy,no
same,Drug-related G3-4 AEs,"[3]; monotherapy, listed as Formula A-2",none
same,Dose-limiting toxicities (DLT),[3],no dose-limiting toxicities; also recorded: no dose limiting toxicities
same,Dose-limiting toxicities (DLT),[3]; listed as Formula A-2,No DLTs
same,Tolerability,"[3]; as monotherapy and in combination with CP, CIS, or gem",well tolerated
same,"Treatment related adverse event: Any Event, All Grades",[3]; [5],1 (100) n (%)
same,"Treatment related adverse event: Any Event, Grade ≥ 3",[3]; [5],0 n (%)
same,"Treatment related adverse event: Catheter site related reaction, All Grades",[3]; [5],0 n (%)
same,"Treatment related adverse event: Catheter site related reaction, Grade ≥ 3",[3]; [5],0 n (%)
same,"Treatment related adverse event: Flushing, All Grades",[3]; [5],0 n (%)
same,"Treatment related adverse event: Flushing, Grade ≥ 3",[3]; [5],0 n (%)
same,"Treatment related adverse event: Headache, All Grades",[3]; [5],0 n (%)
same,"Treatment related adverse event: Headache, Grade ≥ 3",[3]; [5],0 n (%)
same,"Treatment related adverse event: Infusion related reaction, All Grades",[3]; [5],0 n (%)
same,"Treatment related adverse event: Infusion related reaction, Grade ≥ 3",[3]; [5],0 n (%)
same,"Treatment related adverse event: Nausea, All Grades",[3]; [5],0 n (%)
same,"Treatment related adverse event: Nausea, Grade ≥ 3",[3]; [5],0 n (%)
same,"Treatment related adverse event: Pruritus, All Grades",[3]; [5],0 n (%)
same,"Treatment related adverse event: Pruritus, Grade ≥ 3",[3]; [5],0 n (%)
same,"Treatment related adverse event: Any Event, All Grades",[3]; [6],4 (50.0) n (%)
same,"Treatment related adverse event: Any Event, Grade ≥ 3",[3]; [6],0 n (%)
same,"Treatment related adverse event: Catheter site related reaction, All Grades",[3]; [6],0 n (%)
same,"Treatment related adverse event: Catheter site related reaction, Grade ≥ 3",[3]; [6],0 n (%)
same,"Treatment related adverse event: Flushing, All Grades",[3]; [6],0 n (%)
same,"Treatment related adverse event: Flushing, Grade ≥ 3",[3]; [6],0 n (%)
same,"Treatment related adverse event: Headache, All Grades",[3]; [6],0 n (%)
same,"Treatment related adverse event: Headache, Grade ≥ 3",[3]; [6],0 n (%)
same,"Treatment related adverse event: Infusion related reaction, All Grades",[3]; [6],0 n (%)
same,"Treatment related adverse event: Infusion related reaction, Grade ≥ 3",[3]; [6],0 n (%)
same,"Treatment related adverse event: Nausea, All Grades",[3]; [6],0 n (%)
same,"Treatment related adverse event: Nausea, Grade ≥ 3",[3]; [6],0 n (%)
same,"Treatment related adverse event: Pruritus, All Grades",[3]; [6],0 n (%)
same,"Treatment related adverse event: Pruritus, Grade ≥ 3",[3]; [6],0 n (%)
same,"Treatment related adverse event: Any Event, All Grades",[3]; [7],0 n (%)
same,"Treatment related adverse event: Any Event, Grade ≥ 3",[3]; [7],0 n (%)
same,"Treatment related adverse event: Catheter site related reaction, All Grades",[3]; [7],0 n (%)
same,"Treatment related adverse event: Catheter site related reaction, Grade ≥ 3",[3]; [7],0 n (%)
same,"Treatment related adverse event: Flushing, All Grades",[3]; [7],0 n (%)
same,"Treatment related adverse event: Flushing, Grade ≥ 3",[3]; [7],0 n (%)
same,"Treatment related adverse event: Headache, All Grades",[3]; [7],0 n (%)
same,"Treatment related adverse event: Headache, Grade ≥ 3",[3]; [7],0 n (%)
same,"Treatment related adverse event: Infusion related reaction, All Grades",[3]; [7],0 n (%)
same,"Treatment related adverse event: Infusion related reaction, Grade ≥ 3",[3]; [7],0 n (%)
same,"Treatment related adverse event: Nausea, All Grades",[3]; [7],0 n (%)
same,"Treatment related adverse event: Nausea, Grade ≥ 3",[3]; [7],0 n (%)
same,"Treatment related adverse event: Pruritus, All Grades",[3]; [7],0 n (%)
same,"Treatment related adverse event: Pruritus, Grade ≥ 3",[3]; [7],0 n (%)
same,"Treatment related adverse event: Any Event, All Grades",[3]; [8],6 (100) n (%)
same,"Treatment related adverse event: Any Event, Grade ≥ 3",[3]; [8],1 (16.7) n (%)
same,"Treatment related adverse event: Catheter site related reaction, All Grades",[3]; [8],2 (33.3) n (%)
same,"Treatment related adverse event: Catheter site related reaction, Grade ≥ 3",[3]; [8],0 n (%)
same,"Treatment related adverse event: Flushing, All Grades",[3]; [8],1 (16.7) n (%)
same,"Treatment related adverse event: Flushing, Grade ≥ 3",[3]; [8],0 n (%)
same,"Treatment related adverse event: Headache, All Grades",[3]; [8],0 n (%)
same,"Treatment related adverse event: Headache, Grade ≥ 3",[3]; [8],0 n (%)
same,"Treatment related adverse event: Infusion related reaction, All Grades",[3]; [8],4 (16.7) n (%)
same,"Treatment related adverse event: Infusion related reaction, Grade ≥ 3",[3]; [8],0 n (%)
same,"Treatment related adverse event: Nausea, All Grades",[3]; [8],0 n (%)
same,"Treatment related adverse event: Nausea, Grade ≥ 3",[3]; [8],0 n (%)
same,"Treatment related adverse event: Pruritus, All Grades",[3]; [8],0 n (%)
same,"Treatment related adverse event: Pruritus, Grade ≥ 3",[3]; [8],0 n (%)
same,"Treatment related adverse event: Any Event, All Grades",[3]; [9],7 (100) n (%)
same,"Treatment related adverse event: Any Event, Grade ≥ 3",[3]; [9],0 n (%)
same,"Treatment related adverse event: Catheter site related reaction, All Grades",[3]; [9],0 n (%)
same,"Treatment related adverse event: Catheter site related reaction, Grade ≥ 3",[3]; [9],0 n (%)
same,"Treatment related adverse event: Flushing, All Grades",[3]; [9],3 (42.9) n (%)
same,"Treatment related adverse event: Flushing, Grade ≥ 3",[3]; [9],0 n (%)
same,"Treatment related adverse event: Headache, All Grades",[3]; [9],2 (28.6) n (%)
same,"Treatment related adverse event: Headache, Grade ≥ 3",[3]; [9],0 n (%)
same,"Treatment related adverse event: Infusion related reaction, All Grades",[3]; [9],1 (14.3) n (%)
same,"Treatment related adverse event: Infusion related reaction, Grade ≥ 3",[3]; [9],0 n (%)
same,"Treatment related adverse event: Nausea, All Grades",[3]; [9],2 (28.6) n (%)
same,"Treatment related adverse event: Nausea, Grade ≥ 3",[3]; [9],0 n (%)
same,"Treatment related adverse event: Pruritus, All Grades",[3]; [9],2 (28.6) n (%)
same,"Treatment related adverse event: Pruritus, Grade ≥ 3",[3]; [9],0 n (%)
same,"Treatment related adverse event: Any Event, All Grades","[3]; monotherapy, Total (N = 17)",15 (88.2) n (%)
same,"Treatment related adverse event: Any Event, Grade ≥ 3","[3]; monotherapy, Total (N = 17)",1 (5.9) n (%)
same,"Treatment related adverse event: Catheter site related reaction, All Grades","[3]; monotherapy, Total (N = 17)",2 (11.8) n (%)
same,"Treatment related adverse event: Catheter site related reaction, Grade ≥ 3","[3]; monotherapy, Total (N = 17)",0 n (%)
same,"Treatment related adverse event: Flushing, All Grades","[3]; monotherapy, Total (N = 17)",4 (23.5) n (%)
same,"Treatment related adverse event: Flushing, Grade ≥ 3","[3]; monotherapy, Total (N = 17)",0 n (%)
same,"Treatment related adverse event: Headache, All Grades","[3]; monotherapy, Total (N = 17)",2 (11.8) n (%)
same,"Treatment related adverse event: Headache, Grade ≥ 3","[3]; monotherapy, Total (N = 17)",0 n (%)
same,"Treatment related adverse event: Infusion related reaction, All Grades","[3]; monotherapy, Total (N = 17)",2 (11.8) n (%)
same,"Treatment related adverse event: Infusion related reaction, Grade ≥ 3","[3]; monotherapy, Total (N = 17)",0 n (%)
same,"Treatment related adverse event: Nausea, All Grades","[3]; monotherapy, Total (N = 17)",2 (11.8) n (%)
same,"Treatment related adverse event: Nausea, Grade ≥ 3","[3]; monotherapy, Total (N = 17)",0 n (%)
same,"Treatment related adverse event: Pruritus, All Grades","[3]; monotherapy, Total (N = 17)",2 (11.8) n (%)
same,"Treatment related adverse event: Pruritus, Grade ≥ 3","[3]; monotherapy, Total (N = 17)",0 n (%)
same,Dose at which adverse events began,[3]; once weekly monotherapy,480 mg/m^2
same,Progression-free survival (PFS),"advanced solid tumors; 1 patient with renal cancer (papillary carcinoma), combination with gem",415 days
same,Median PFS,advanced solid tumors; Compound A-2 <90 mg/m^2 + gemcitabine 875 mg/m^2,8.3 weeks
same,Median PFS,advanced solid tumors; Compound A-2 ≥90 mg/m^2 + gemcitabine 500 mg/m^2,29.3 weeks
same,Prolonged stable disease (SD) responses,advanced solid tumors; combination with gem,2 pts
same,Best overall response partial response (PR),"advanced solid tumors; combination with gem, 50 pts",4 pts
same,Progression-free survival (PFS),"advanced solid tumors; pt with GIST, combination with gem",> 191 days
same,Time on trial,advanced solid tumors; pt with breast cancer in DL8,> 133 days
